Laboratory results: patent publication US20230295234A1, “ANTIMICROBIAL PEPTIDOMIMETICS” (SPEXIS AG, priority 2020, published 2023)
Bridge positions count the residues as written; N and C are the ends. Square brackets hold non-standard residues; d marks the D form. Peptide text beside a SMILES is read from it. * marks the point of attachment. Pro(4R-NH2) = N[C@H]1CN[C@H](C(=O)O)C1; X2 = N=C(N)N1C[C@H](O)C[C@H]1C(=O)*; Gly(N-2-aminoethyl) = NCCNCC(=O)O; Pen = CC(C)(S)[C@H](N)C(=O)O; dDab = NCC[C@@H](N)C(=O)O; Nle = CCCC[C@H](N)C(=O)O; Dab = NCC[C@H](N)C(=O)O; X3 = NCCN(CCN)CC(=O)*

Columns and labels:
[1] = test system: Escherichia coli ATCC 25922; settings: ATCC 25922
Method in brief: (§1)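 Activity is measured against peptides serially diluted two-fold in water with 0.002% final Polysorbate 80. The cells are in cation-adjusted MHII broth at roughly 5×10^5 CFU/mL, prepared from a 0.5 McFarland suspension in 0.85% NaCl.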

[2] = test system: Klebsiella pneumoniae SSI3010; settings: SSI3010
Method in brief: as §1

[3] = test system: Escherichia coli MCR-1 Af 45; settings: MCR-1 Af 45
Method in brief: as §1

[4] = test system: human red blood cells (hRBC); assay: Hemolysis of human red blood cells; assay type: cell-based; settings: red cells of human, 1 h
Method in brief: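 PBS-washed human red blood cells (20% v/v) were incubated with peptide at 200 μg/mL for 1 h at 37 °C with shaking. Supernatant OD was read at 540 nm after 8-fold dilution. Hemolysis is expressed as percent of the water control.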

SMILES	Escherichia coli ATCC 25922 MIC [1]	Klebsiella pneumoniae SSI3010 MIC [2]	Escherichia coli MCR-1 Af 45 MIC [3]	Hemolysis at 0.2 g/L [4]
CC[C@H](C)[C@H](NC(=O)[C@@H]1C[C@@H](O)CN1C(=O)[C@@H](NC(=O)CNCCCCN)C(C)C)C(=O)N[C@H](C(=O)N[C@@H](Cc1ccc(O)cc1)C(=O)N[C@@H]1C(=O)N[C@@H](CC(N)=O)C(=O)N[C@@H](CCCNC(=N)N)C(=O)N[C@@H](CCN)C(=O)N[C@@H]([C@@H](C)O)C(=O)N[C@H](CCN)C(=O)N[C@@H](CCCCN)C(=O)N[C@H](C(=O)N[C@@H](CCN)C(=O)N[C@@H](CCCNC(=N)N)C(=O)N[C@@H](Cc2ccc(O)cc2)C(=O)O)CSSC1(C)C)[C@@H](C)O [Example 34, Nlys-Val-Hyp-Ile-Thr-Tyr-Pen-Asn-Arg-Dab-Thr-^DDab-Lys-Cys-Dab-Arg-Tyr] (HELM PEPTIDE1{[NCCCCNCC(=O)[*:2]].V.[Hyp].I.T.Y.[Pen].N.R.[Dab].T.[NCC[C@@H](N[*:1])C(=O)[*:2]].K.C.[Dab].R.Y}$PEPTIDE1,PEPTIDE1,7:R3-14:R3$$$V2.0)	0.125 µg/mL	0.125 µg/mL	0.125 µg/mL	0%
CC[C@H](C)[C@H](NC(=O)[C@@H]1C[C@@H](O)CN1C(=O)[C@@H](NC(=O)[C@@H]1C[C@@H](O)CN1C(=N)N)C(C)C)C(=O)N[C@H](C(=O)N[C@@H](Cc1ccc(O)cc1)C(=O)N[C@@H]1C(=O)N[C@@H](CC(N)=O)C(=O)N[C@@H](CCCNC(=N)N)C(=O)N[C@@H](CCN)C(=O)N[C@@H]([C@@H](C)O)C(=O)N[C@H](CCN)C(=O)N[C@@H](CCCCN)C(=O)N[C@H](C(=O)N[C@@H](CCN)C(=O)N[C@@H](CCCNC(=N)N)C(=O)N[C@@H](Cc2ccc(O)cc2)C(=O)O)CSSC1(C)C)[C@@H](C)O [Example 35, Gua-Hyp-Val-Hyp-Ile-Thr-Tyr-Pen-Asn-Arg-Dab-Thr-^DDab-Lys-Cys-Dab-Arg-Tyr] (HELM PEPTIDE1{[N=C(N)N1C[C@H](O)C[C@H]1C(=O)[*:2]].V.[Hyp].I.T.Y.[Pen].N.R.[Dab].T.[NCC[C@@H](N[*:1])C(=O)[*:2]].K.C.[Dab].R.Y}$PEPTIDE1,PEPTIDE1,7:R3-14:R3$$$V2.0)	0.125 µg/mL	0.25 µg/mL	0.125 µg/mL	0%
CC[C@H](C)[C@H](NC(=O)[C@@H]1C[C@@H](N)CN1C(=O)[C@@H](NC(=O)[C@@H]1C[C@@H](O)CN1C(=N)N)C(C)C)C(=O)N[C@H](C(=O)N[C@@H](Cc1ccc(O)cc1)C(=O)N[C@@H]1C(=O)N[C@@H](CC(N)=O)C(=O)N[C@@H](CCCNC(=N)N)C(=O)N[C@@H](CCN)C(=O)N[C@@H]([C@@H](C)O)C(=O)N[C@H](CCN)C(=O)N[C@@H](CCCCN)C(=O)N[C@H](C(=O)N[C@@H](CCN)C(=O)N[C@@H](CCCNC(=N)N)C(=O)N[C@@H](Cc2ccc(O)cc2)C(=O)O)CSSC1(C)C)[C@@H](C)O [Example 36, Gua-Hyp-Val-Pro((4R)NH2)-Ile-Thr-Tyr-Pen-Asn-Arg-^Dab-Thr-^DDab-Lys-Cys-Dab-Arg-Tyr] (X2-V[Pro(4R-NH2)]ITY[Pen]NR[Dab]T[dDab]KC[Dab]RY-OH; disulfide 6-13)	0.125 µg/mL	0.125 µg/mL	0.0625 µg/mL	0%
CC[C@H](C)[C@H](NC(=O)CN(CCN)C(=O)[C@@H](NC(=O)[C@@H]1C[C@@H](O)CN1C(=N)N)C(C)C)C(=O)N[C@H](C(=O)N[C@@H](Cc1ccc(O)cc1)C(=O)N[C@@H]1C(=O)N[C@@H](CC(N)=O)C(=O)N[C@@H](CCCNC(=N)N)C(=O)N[C@@H](CCN)C(=O)N[C@@H]([C@@H](C)O)C(=O)N[C@H](CCN)C(=O)N[C@@H](CCCCN)C(=O)N[C@H](C(=O)N[C@@H](CCN)C(=O)N[C@@H](CCCNC(=N)N)C(=O)N[C@@H](Cc2ccc(O)cc2)C(=O)O)CSSC1(C)C)[C@@H](C)O [Example 37, Gua-Hyp-Val-Ndab-Ile-Thr-Tyr-Pen-Asn-Arg-Dab-Thr-^DDab-Lys-Cys-Dab-Arg-Tyr] (X2-V[Gly(N-2-aminoethyl)]ITY[Pen]NR[Dab]T[dDab]KC[Dab]RY-OH; disulfide 6-13)	0.25 µg/mL	0.25 µg/mL	0.0625 µg/mL	0%
CC[C@H](C)[C@H](NC(=O)[C@@H]1C[C@@H](O)CN1C(=O)[C@@H](NC(=O)[C@@H]1C[C@@H](N)CN1C(=N)N)C(C)C)C(=O)N[C@H](C(=O)N[C@@H](Cc1ccc(O)cc1)C(=O)N[C@@H]1C(=O)N[C@@H](CC(N)=O)C(=O)N[C@@H](CCCNC(=N)N)C(=O)N[C@@H](CCN)C(=O)N[C@@H]([C@@H](C)O)C(=O)N[C@H](CCN)C(=O)N[C@@H](CCCCN)C(=O)N[C@H](C(=O)N[C@@H](CCN)C(=O)N[C@@H](CCCNC(=N)N)C(=O)N[C@@H](Cc2ccc(O)cc2)C(=O)O)CSSC1(C)C)[C@@H](C)O [Example 38, Gua-Pro((4R)NH2)-Val-Hyp-Ile-Thr-Tyr-Pen-Asn-Arg-Dab-Thr-^DDab-Lys-Cys-Dab-Arg-Tyr] (HELM PEPTIDE1{[N=C(N)N1C[C@H](N)C[C@H]1C(=O)[*:2]].V.[Hyp].I.T.Y.[Pen].N.R.[Dab].T.[NCC[C@@H](N[*:1])C(=O)[*:2]].K.C.[Dab].R.Y}$PEPTIDE1,PEPTIDE1,7:R3-14:R3$$$V2.0)	0.25 µg/mL	0.125 µg/mL	0.0625 µg/mL	0%
CCCC[C@H](NC(=O)[C@H](CCCNC(=N)N)NC(=O)[C@H](CCN)NC(=O)[C@@H]1CSSC(C)(C)[C@H](NC(=O)[C@H](Cc2ccc(O)cc2)NC(=O)[C@@H](NC(=O)[C@@H](NC(=O)[C@@H]2CCCN2C(=O)[C@@H](NC(=O)CN(CCN)CCN)C(C)C)[C@@H](C)CC)[C@@H](C)CC)C(=O)N[C@@H](CC(N)=O)C(=O)N[C@@H](CCCNC(=N)N)C(=O)N[C@@H](CCCNC(=N)N)C(=O)N[C@@H]([C@@H](C)O)C(=O)N[C@H](CCN)C(=O)N[C@@H](CCCCN)C(=O)N1)C(=O)O [Example 39, Bis(2aminoethyl)Gly-Val-Pro-Ile-Ile-Tyr-Pen-Asn-Arg-Arg-Thr-^DDab-Lys-Cys-Dab-Arg-Nle] (HELM PEPTIDE1{[NCCN(CCN)CC(=O)[*:2]].V.P.I.I.Y.[Pen].N.R.R.T.[NCC[C@@H](N[*:1])C(=O)[*:2]].K.C.[Dab].R.[Nle]}$PEPTIDE1,PEPTIDE1,7:R3-14:R3$$$V2.0)	0.0625 µg/mL	0.0625 µg/mL	≤0.03125 µg/mL	0%
CCCC[C@H](NC(=O)[C@H](CCCNC(=N)N)NC(=O)[C@H](CCC(N)=O)NC(=O)[C@@H]1CSSC(C)(C)[C@H](NC(=O)[C@H](Cc2ccc(O)cc2)NC(=O)[C@@H](NC(=O)[C@@H](NC(=O)[C@@H]2C[C@@H](N)CN2C(=O)[C@@H](NC(=O)CN(CCN)CCN)C(C)C)[C@@H](C)CC)[C@@H](C)CC)C(=O)N[C@@H](CC(N)=O)C(=O)N[C@@H](CCCNC(=N)N)C(=O)N[C@@H](CCN)C(=O)N[C@@H]([C@@H](C)O)C(=O)N[C@H](CCN)C(=O)N[C@@H](CCCCN)C(=O)N1)C(=O)O [Example 40, Bis(2aminoethyl)Gly-Val-Pro((4R)NH2)-Ile-Ile-Tyr-Pen-Asn-Arg-Dab-Thr-DDab-Lys-Cys-Gln-Arg-Nle] (X3-V[Pro(4R-NH2)]IIY[Pen]NR[Dab]T[dDab]KCQR[Nle]-OH; disulfide 6-13)	0.125 µg/mL	0.25 µg/mL	0.0625 µg/mL	0%
CC[C@H](C)[C@H](NC(=O)[C@@H]1C[C@@H](O)CN1C(=O)[C@@H](NC(=O)[C@@H]1C[C@@H](O)CN1C(=O)[C@@H](N)CCCCN)C(C)C)C(=O)N[C@H](C(=O)N[C@@H](Cc1ccc(O)cc1)C(=O)N[C@@H]1C(=O)N[C@@H](CC(N)=O)C(=O)N[C@@H](CCCNC(=N)N)C(=O)N[C@@H](CCN)C(=O)N[C@@H]([C@@H](C)O)C(=O)N[C@H](CCN)C(=O)N[C@@H](CCCCN)C(=O)N[C@H](C(=O)N[C@@H](CCN)C(=O)N[C@@H](CCCNC(=N)N)C(=O)N[C@@H](Cc2ccc(O)cc2)C(=O)O)CSSC1(C)C)[C@@H](C)O [Example 41, Lys-Hyp-Val-Hyp-Ile-Thr-Tyr-Pen-Asn-Arg-Dab-Thr-^DDab-Lys-Cys-Dab-Arg-Tyr] (HELM PEPTIDE1{K.[Hyp].V.[Hyp].I.T.Y.[Pen].N.R.[Dab].T.[NCC[C@@H](N[*:1])C(=O)[*:2]].K.C.[Dab].R.Y}$PEPTIDE1,PEPTIDE1,8:R3-15:R3$$$V2.0)	0.125 µg/mL	0.25 µg/mL	0.0625 µg/mL	0%
